These results are taken from ChEMBL document CHEMBL1201862, “PubChem BioAssay data set” (2004).

Molecules are shown by their SMILES. Several values for one entry are separate records, joined by “and”; a condition that tells them apart may be missing. Identical values can stand only once.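 Where inhibition never reached the appropriate level, the endpoint shown equals the highest concentration tested. Otherwise, values were interpolated linearly from a five-concentration, 48-hour dose response in 96-well plates. The concentration for 50% growth inhibition is given as GI50.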 Activity calls are given as the source filed them. No stated cut-off is given here; in the data, active = GI50 up to about 1.1 µM and inactive = higher.

Some test systems named below: BT-549; HCC 2998; HCT-116; HCT-15; HL-60; Hs-578T; IGROV-1; KM12; MOLT-4; NCI-H23; NCI-H522; OVCAR-3; OVCAR-4; PC-3; RXF 393; SK-MEL-5; SK-OV-3; SNB-75; U-251; UACC-257.
What all share (assay): growth of human tumour cells (NCI), 48 h

Regarding `Cc1cc2c(cc1C)N1C(Cl)=C3CCCCC3=C(C#N)C1N2` (stereo not given), the GI50 is 2.45 µM (inactive) with BT-549; 8.69 µM (inactive) with HCC 2998; 1.7 µM (inactive) in the test on HCT-116; 2.61 µM with HCT-15; 3.05 µM (inactive) in the test on HL-60; 7.85 µM (inactive) with Hs-578T. For the same compound, the GI50 was 6.76 µM (inactive) in the test with IGROV-1; 9.02 µM (inactive) in the test on KM12; 3.48 µM (inactive) in the test with MOLT-4; 4.98 µM (inactive) in the test on NCI-H23; 2 µM (inactive) in the test on NCI-H522; 16.7 µM (inactive) with OVCAR-3. Moreover, the GI50 with OVCAR-4 was 12.3 µM (inactive); in the test with PC-3, 13.6 µM (inactive); with RXF 393, 14 µM (inactive); with SK-MEL-5, 3.72 µM (inactive); in the test with SK-OV-3 it was 18.6 µM (inactive); with SNB-75 it was 23.6 µM (inactive). Further, the GI50 in the test on U-251 is 9.42 µM (inactive); with UACC-257, 8.18 µM (inactive).

As for `CC(=O)OC(C)c1cc2c(s1)C(=O)c1scc(C(C)OC(C)=O)c1C2=O` (stereo not given), the GI50 was 0.218 µM (active) in the test on BT-549; 0.317 µM (active) in the test with HCC 2998; 0.285 µM (active) in the test with HCT-116; 0.195 µM in the test with HCT-15; 0.646 µM (active) with HL-60; 0.339 µM (active) with Hs-578T. For the same compound, the GI50 in the test on IGROV-1 is 0.662 µM (active); with KM12, 0.195 µM (active); in the test on MOLT-4 it was 0.324 µM (active); with NCI-H23, 0.157 µM (active); in the test with NCI-H522, 0.215 µM (active); in the test on OVCAR-3, 0.307 µM (active). Besides, the GI50 was 0.298 µM (active) in the test on OVCAR-4; 0.292 µM (active) in the test on PC-3; 0.301 µM (active) with RXF 393; 0.0653 µM (active) with SK-MEL-5; 2.16 µM (inactive) in the test on SK-OV-3; 0.185 µM (active) in the test on SNB-75. Besides, the GI50 with U-251 is 0.25 µM (active); with UACC-257 it was 0.174 µM (active).

Take `O=S(=O)(O)c1ccc2c(/N=N/c3ccc(S(=O)(=O)O)c4ccccc34)c(O)c(S(=O)(=O)O)cc2c1`: the GI50 was > 100 µM (inactive) with BT-549; > 100 µM (inactive) in the test on HCC 2998; > 100 µM (inactive) in the test with HCT-116; greater than 100 µM with HCT-15; > 100 µM (inactive) with HL-60; > 100 µM (inactive) with Hs-578T. For the same compound, the GI50 in the test on IGROV-1, with KM12, with MOLT-4, in the test with NCI-H23, with NCI-H522 and in the test with OVCAR-3 was > 100 µM (inactive) in each case. Also, the GI50 in the test with OVCAR-4 is > 100 µM (inactive); with PC-3 it was > 100 µM (inactive); in the test on RXF 393, > 100 µM (inactive) and 63.5 µM (inactive); in the test on SK-MEL-5, > 100 µM (inactive); with SK-OV-3, > 100 µM (inactive); in the test on SNB-75 it was > 100 µM (inactive). Further, the GI50 in the test on U-251 and in the test on UACC-257 was > 100 µM (inactive) in each case.

For `N#Cc1c(N)nc(SCc2ccccc2)c(C#N)c1-c1ccc(O)cc1`, the GI50 in the test with BT-549 is 11.6 µM (inactive); in the test with HCC 2998 it was > 38.5 µM (inactive); in the test with HCT-116 it was 11.5 µM (inactive); in the test with HCT-15, 11.2 µM; in the test with HL-60, 11.3 µM (inactive); in the test on Hs-578T it was 29.2 µM (inactive). Besides, the GI50 in the test with IGROV-1 is 11 µM (inactive); in the test with KM12, 11 µM (inactive); with MOLT-4, 5.53 µM (inactive); in the test with NCI-H23, 15.9 µM (inactive); in the test on NCI-H522, 12.6 µM (inactive); in the test on OVCAR-3, 14.6 µM (inactive). Also, the GI50 in the test with OVCAR-4 is 10.3 µM (inactive); in the test on PC-3, 15.5 µM (inactive); in the test on RXF 393 it was 15.9 µM (inactive); in the test with SK-MEL-5 it was 11.7 µM (inactive); in the test with SK-OV-3 it was 15.5 µM (inactive); with SNB-75 it was 16.8 µM (inactive). The values for the GI50 in the test on U-251 and with UACC-257 were 13.9 µM (inactive) and > 37.5 µM (inactive), respectively.

As for `N#Cc1ncc(C(Cl)Cl)nc1Cl`, the GI50 is 1.84 µM (inactive) in the test on BT-549; 1.69 µM (inactive) in the test with HCC 2998; 1.67 µM (inactive) in the test with HCT-116; 1.82 µM with HCT-15; 0.748 µM (active) with HL-60; 4.66 µM (inactive) with Hs-578T. Also, the GI50 in the test on IGROV-1 is 2.09 µM (inactive); in the test with KM12 it was 1.4 µM (inactive); in the test with MOLT-4, 3.37 µM (inactive); with NCI-H23 it was 2.12 µM (inactive); in the test on NCI-H522, 0.502 µM (active); with OVCAR-3 it was 2.12 µM (inactive). In addition, the GI50 in the test on OVCAR-4 is 1.85 µM (inactive); in the test on PC-3, 1.8 µM (inactive); with RXF 393 it was 1.75 µM (inactive); with SK-MEL-5 it was 1.75 µM (inactive); in the test on SK-OV-3 it was 3.78 µM (inactive); in the test on SNB-75, 2.29 µM (inactive). Besides, the results for the GI50 with U-251 and with UACC-257 were 1.97 µM (inactive) and 1.53 µM (inactive), respectively.

In the case of `CCCCCCCCCCCC(=O)N(CCCCCCCCCCC(=O)O)CC(O)C(O)C(OC1OC(CO)C(O)C(O)C1O)C(O)CO` (stereo not given), the GI50 was > 100 µM (inactive) with BT-549; > 100 µM (inactive) with HCC 2998; > 100 µM (inactive) with HCT-116; greater than 100 µM in the test on HCT-15; > 100 µM (inactive) with HL-60; > 100 µM (inactive) in the test with Hs-578T. The GI50 in the test on IGROV-1, in the test with KM12, in the test on MOLT-4, with NCI-H23, in the test with NCI-H522 and in the test with OVCAR-3 was > 100 µM (inactive) in each case. For the same compound, the GI50 with OVCAR-4, in the test on PC-3, in the test with RXF 393, with SK-MEL-5, in the test on SK-OV-3 and in the test with SNB-75 was > 100 µM (inactive) in each case. Further, the GI50 in the test on U-251 and in the test on UACC-257 was > 100 µM (inactive) each time.

On to `CN1CCN([C@H]2C[C@H]3[C@@H]4CC=C5C[C@@H](O)CC[C@]5(C)[C@H]4CC[C@]3(C)C2=O)CC1`, for which the GI50 in the test on BT-549 was > 100 µM (inactive); in the test with HCC 2998 it was > 100 µM (inactive); in the test on HCT-116, > 100 µM (inactive); in the test with HCT-15, greater than 100 µM; in the test with HL-60, 31.8 µM (inactive); in the test with Hs-578T, > 100 µM (inactive). Moreover, the GI50 with IGROV-1, in the test on KM12, with MOLT-4, with NCI-H23, in the test with NCI-H522 and with OVCAR-3 was > 100 µM (inactive) each time. For the same compound, the GI50 in the test with OVCAR-4, with PC-3, in the test on RXF 393, in the test with SK-MEL-5, in the test on SK-OV-3 and in the test with SNB-75 was > 100 µM (inactive) throughout. The GI50 in the test with U-251 and in the test on UACC-257 was > 100 µM (inactive) in each case.
